Data as given in US5817667A, “Compounds and methods for the treatment of cancer” (University of Georgia Research Foudation, priority 1994, dated 1998).

Key:
[1] = cells; details: 48 h, read-out: Log10 GI50 (converted)
[2] = tested on: SR; assay: NCI cancer screening, growth inhibition (SRB); format: cell-based; details: Leukemia, 48 hours exposure
[3] = tested on: MCF7; assay: NCI cancer screening, growth inhibition (SRB); format: cell-based; details: Breast Cancer, 48 hours exposure
[4] = tested on: LOX D6VI; assay: NCI cancer screening, growth inhibition (SRB); format: cell-based; details: Melanoma, 48 hours exposure
[5] = tested on: OVCAR-3; assay: NCI cancer screening, growth inhibition (SRB); format: cell-based; details: Homo sapiens, OVCAR-3, 48 h, read-out: Log10 GI50 (converted)
[6] = tested on: OVCAR-8; assay: NCI cancer screening, growth inhibition (SRB); format: cell-based; details: Homo sapiens, OVCAR-8, 48 h, read-out: Log10 GI50 (converted)
[7] = tested on: OVCAR-4; assay: NCI cancer screening, growth inhibition (SRB); format: cell-based
[8] = tested on: SK-MEL-28; assay: NCI cancer screening, growth inhibition (SRB); format: cell-based; details: Melanoma, 48 hours exposure
[9] = tested on: HS578T; assay: NCI cancer screening, growth inhibition (SRB); format: cell-based
[10] = tested on: SN12C; assay: NCI cancer screening, growth inhibition (SRB); format: cell-based; details: Renal Cancer, 48 hours exposure
[11] = Non-Small Cell Lung Cancer; 48 hours exposure
[12] = tested on: A549/ATCC; assay: NCI cancer screening, growth inhibition (SRB); format: cell-based; details: Non-Small Cell Lung Cancer, 48 hours exposure
[13] = tested on: MDA-MB-231/ATCC; assay: cells; details: Homo sapiens, MDA-MB-231, 48 h, read-out: Log10 GI50 (converted)
[14] = tested on: TK-30; assay: NCI cancer screening, growth inhibition (SRB); format: cell-based
[15] = tested on: ACHN; assay: NCI cancer screening, growth inhibition (SRB); format: cell-based; details: Renal Cancer, 48 hours exposure
[16] = tested on: Colon 38 tumor cells; assay: In vivo treatment of Colon 38 tumor cells implanted sc in BDF1 mice; details: 25 mg/kg/dose twice daily for five days, FIG. 2
From the text: The graph plots tumor growth as a percentage of original tumor weight vs. days. Treatment of the mice occurred in days 1, 2, 3, 4 and 5.
Colon 38 tumor cells were implanted sc to BDF1 mice.

[17] = tested on: NCI-H522; assay: NCI cancer screening, growth inhibition (SRB); format: cell-based; details: Non-Small Cell Lung Cancer, 48 hours exposure
[18] = tested on: SK-MEL-5; assay: NCI cancer screening, growth inhibition (SRB); format: cell-based; details: Melanoma, 48 hours exposure
[19] = tested on: CCRF-CEM; assay: NCI cancer screening, growth inhibition (SRB); format: cell-based; details: Leukemia, 48 hours exposure
[20] = tested on: UACC-62; assay: NCI cancer screening, growth inhibition (SRB); format: cell-based; details: Melanoma, 48 hours exposure
[21] = tested on: K2112; assay: cells; details: 48 h, read-out: Log10 GI50 (converted)
[22] = tested on: MDA-MB-231/ATCC; details: Breast Cancer; 48 hours exposure
[23] = tested on: MALME-3M; assay: NCI cancer screening, growth inhibition (SRB); format: cell-based; details: Melanoma, 48 hours exposure
[24] = tested on: mice; assay: Toxicity to mice in the P388 leukemia protocol; format: in vivo, BDF1 mice; details: 75 mg/kg/dose ip, twice daily for five days
Procedure: 10^6 Leukemia P388 cells were implanted ip to BDF1 mice obtained from Southern Research Institute, Alabama. L(-)-OddC was administered ip twice daily for five days starting one day after tumor cell implantation.

[25] = tested on: SP-295; assay: NCI cancer screening, growth inhibition (SRB); format: cell-based; details: CNS Cancer, 48 hours exposure
[26] = tested on: HCT-116; assay: NCI cancer screening, growth inhibition (SRB); format: cell-based; details: Colon Cancer, 48 hours exposure
[27] = tested on: OROV1; assay: NCI cancer screening, growth inhibition (SRB); format: cell-based; details: Ovarian Cancer; 48 hours exposure
From the text: PG=100×(Mean ODtest -Mean ODtzero)/(Mean ODtzero)

[28] = tested on: NCI-H322M; assay: cells; details: Homo sapiens, 48 h, read-out: Log10 GI50 (converted)
[29] = tested on: NCI-H23; assay: NCI cancer screening, growth inhibition (SRB); format: cell-based; details: Non-Small Cell Lung Cancer, 48 hours exposure
[30] = read-out: Log10 GI50 (converted)

Nc1ccn([C@@H]2CO[C@H](CO)O2)c(=O)n1 [(-)-OddC, (-)-(2S,4S)-1-(2-hydroxymethyl-1,3-dioxolan-4-yl)cytosine]
GI50 [1]: > 100 µM
GI50 ([2]; Homo sapiens, SR, read-out: Log10 GI50 (converted)): 1120 nM
Log10 TGI [2]: > -4.00
Log10 TGI [3]: > -4.00
GI50 ([3]; Homo sapiens, MCF7, read-out: Log10 GI50 (converted)): 1120 nM
Log10 TGI [4]: > -4.00
GI50 [4, 30]: 407 nM
GI50 [5]: 36.3 µM
GI50 [6]: 1510 nM
GI50 ([7]; Homo sapiens, OVCAR-4, 48 h, read-out: Log10 GI50 (converted)): > 100 µM
Log10 TGI ([7]; Ovarian Cancer, 48 hours exposure): > -4.00
GI50 ([8]; Homo sapiens, SK-MEL-28, read-out: Log10 GI50 (converted)): 49 µM
Log10 TGI [8]: > -4.00
Log10 TGI ([9]; Breast Cancer, 48 hours exposure): > -4.00
GI50 ([9]; Homo sapiens, Hs-578T, 48 h, read-out: Log10 GI50 (converted)): > 100 µM
GI50 ([10]; Homo sapiens, SN12C, read-out: Log10 GI50 (converted)): 537 nM
Log10 TGI [10]: > -4.00
Log10 TGI [11]: > -4.00
GI50 ([12]; Homo sapiens, A549, read-out: Log10 GI50 (converted)): 977 nM
Log10 TGI [12]: > -4.00
GI50 [13]: > 100 µM
GI50 ([14]; 48 h, read-out: Log10 GI50 (converted)): > 100 µM
Log10 TGI ([14]; Renal Cancer, 48 hours exposure): > -4.00
GI50 ([15]; Homo sapiens, ACHN, read-out: Log10 GI50 (converted)): 347 nM
Log10 TGI [15]: > -4.00
colon tumor cell growth [16]: retarded
GI50 ([17]; Homo sapiens, NCI-H522, read-out: Log10 GI50 (converted)): 871 nM
Log10 TGI [17]: > -4.00
GI50 ([18]; Homo sapiens, SK-MEL-5, read-out: Log10 GI50 (converted)): 12.3 µM
Log10 TGI [18]: > -4.00
GI50 ([19]; Homo sapiens, CCRF-CEM, read-out: Log10 GI50 (converted)): 229 nM
Log10 TGI [19]: > -4.00
GI50 ([20]; Homo sapiens, UACC-62, read-out: Log10 GI50 (converted)): 2950 nM
Log10 TGI [20]: > -4.00
GI50 [21]: > 100 µM
Log10 TGI [22]: > -4.00
GI50 ([23]; Homo sapiens, Malme-3M, read-out: Log10 GI50 (converted)): 30.9 µM
Log10 TGI [23]: > -4.00
toxicity to the mice [24]: toxic to the mice
Log10 TGI [25]: > -4.00
GI50 [25, 30]: 575 nM
Log10 TGI [26]: > -4.00
GI50 ([26]; Homo sapiens, HCT-116, read-out: Log10 GI50 (converted)): 5.89 µM
Log10 TGI [27]: > -4.00
GI50 [28]: > 100 µM
GI50 ([29]; Homo sapiens, NCI-H23, read-out: Log10 GI50 (converted)): 12 µM
Log10 TGI [29]: > -4.00
